Earlier results, collected in US20240082165A1, “METHODS AND COMPOSITIONS FOR PRECISION RELEASE OF PROBIOTICS TO IMPROVE HUMAN HEALTH” (SEED HEALTH INC., priority 2021, published 2024).

How the values were obtained:
[1] = synthesized ligand, mice
[2] = delivered directly in the colon, overweight individuals

Q: With M-tri-Lys as the compound, how does the protection from colitis [1] read?
A: protected mice from colitis in a NOD2-dependent but MyD88-independent manner

Q: With `CCC(=O)O` [propionate] as the compound, how does the “energy intake, adiposity, liver lipid, plasma PYY and GLP-1” value [2] read?
A: reduced energy intake, adiposity, and lipid liver content, and increased plasma levels of peptide YY (PYY) and glucagon-like peptide 1 (GLP-1)
